Here are results for one compound from patent US10201558B2, “Compositions of selenoorganic compounds and methods of use thereof” (Alltech, Inc., priority 2014, dated 2019).

The structures appear in SMILES notation. Entries after “also recorded” stand apart in the source; their conditions may differ.

The test system of one data set is RCAN1. Kind of data set: QRT-PCR of RCAN1 and RCAN1.1 mRNA in control and FOXO4 KD IMR-32 cells. Type of data set: cell-based, human. The note with it: 24 hours. As to the method:
IMR-32 cells were cultured on 12-well plates for 24 hours and then incubated with FOXO4 siRNA lentiviruses (SC-29650V, Santa Cruz) or control siRNA lentiviruses (sc-108080, Santa Cruz) in the presence of Polybrene (5 μg/ml, Santa Cruz) for 24 hours according to the manufacturer's protocol. These lentiviral siRNA-transfected cells were amplified in normal media for 3 days and then incubated with puromycin for 9-14 days to obtain the stable Control KD (stably transfected with the control siRNAs) and FOXO4KD (stably transfected with Foxo4 siRNAs) cells. These control and Foxo4 KD cells were subjected to cell survival, mitochondrial potential and RNA analysis.
Human IMR-32 cells were seeded on gelatinized 6-well (6.5×10^5 cells/well) or 24-well (1.3×10^5 cells/well) plates. Cells were treated with control (0 ppb) or various compounds for 6 hours or 24 hours. Total RNA from these cells was isolated using Trizol (Invitrogen) according to the manufacturer's protocol, and then incubated with DNase I to remove any potential contaminated genomic DNA. Then RNA samples were subjected to real-time PCR analysis using the Applied-Bioscience's RT kit and predesigned Taqman probes (Invitrogen), as described previously (Lan et al EMBO J 2003). The mRNA levels of UCP1, UCP2, UCP3, SLC25A27 (UCP4), SLC25A14 (UCP5), PSEN1, Nicastrin, GSK3B, MAPK11-14, PPARG, APOE, RCAN1, RCAN1.1, G6PC, INSR, IGF1R and FOXO4 were measured. Three to six samples were analyzed in each treatment group. Data were normalized by Actin B (ACTB) or Glyceraldehyde Phosphate Dehydrogenase (GAPDH) mRNA levels in each sample and are presented as mean±SEM of 3-6 samples.
To investigate whether Compound C can regulate transcription of RCAN1 in a dose-dependent and FOXO4-dependent manner, normal control cells and FOXO4 KD cells were treated with two doses of Compound C for 24 hours, and subjected to QRT-PCR analysis. First a specific RCAN1 Taqman probe that can recognize all RCAN1 mRNA isoforms was used to determine if Compound C can regulate the transcription of RCAN1.
To further determine whether Compound C can regulate the transcription of RCAN1.1 mRNA, the above Compound C-treated RNA samples were subjected to QRT-PCR using a specific RCAN1.1 mRNA Taqman probe.

A further data set concerns Iba-1. Kind of data set: Western blot of Iba-1 in APP/PS1 mouse brains. Type of data set: in vivo. The note with it: APP/PS1 mice, Compound C diet vs control diet. As to the method:
Male APPΔNLh/ΔNLh×PS1P246 L/246 L knock-in model mice of Alzheimer's disease (abbreviated APP/PS1) were genotyped using standard primers for human APP (Amyloid Precursor Protein) and human PS1 (PSEN1). These APP/PS1 mice starting at the age of 6 months, were fed either a control diet containing normal levels of selenium (0.3 ppm from plant and inorganic selenium salt sources) or an experimental diet containing Compound C (the control diet to which was added 1 ppm Se from Compound C) for 6 months. […]
Frozen hemispheres of control- and Compound C-treated APP/PS1 mice were weighed and homogenized in PBS buffer, and then subsequently extracted with RIPA buffer (Sigma) containing complete proteinase and phosphatase inhibitors (Fisher Scientific). Protein levels in the samples were determined by micro-BCA protein analysis according to the manufacturer's protocol. […] Positive signals on the membrane blots were detected using Amersham's enhanced chemiluminescence Western Blotting Prime Detection reagents (GE healthcare Lifescience, Pittsburgh, Pa.). Images of these luminescence signals on the membrane blots were captured using the LI-COR Odyssey Fc Image system (Lincoln, Nebr.). Protein band densities in Western blots were determined using NIH Image J software, and then normalized by Actb levels in each samples to obtain the protein levels.
For orientation: Immunoblotting shows a protein as a band on a membrane.

For data set [1], the system named is Aβ plaque deposits (Aβ1-42). Kind of data set: IHC analysis of amyloid deposits in the brains of APP/PS1 mice. In kind it is in vivo, mouse. The note with it: diet with 1 ppm Se from Compound C, 6 to 12 months of age. The procedure:
Male APPΔNLh/ΔNLh×PS1P246 L/246 L knock-in model mice of Alzheimer's disease (abbreviated APP/PS1) were genotyped using standard primers for human APP (Amyloid Precursor Protein) and human PS1 (PSEN1). These APP/PS1 mice starting at the age of 6 months, were fed either a control diet containing normal levels of selenium (0.3 ppm from plant and inorganic selenium salt sources) or an experimental diet containing Compound C (the control diet to which was added 1 ppm Se from Compound C) for 6 months.
At 12 months of age, the mice were euthanized and the brains quickly removed, the cerebellum isolated and the hemispheres snap-frozen in liquid nitrogen and then stored at −80° C. for further immunohistochemistry (IHC), protein and RNA analysis. All procedures conducted on these animal studies were pre-approved by the University of Kentucky IACUC committee.
Frozen brain tissues were sectioned using a Leica-CM1900 cryostat (Leica Microsystems Inc., Bannockburn, Ill.), as described previously (Zhang et al, 2008. Biochem Biophys Res Commun). These frozen brain sections were subjected to immunohistochemistry staining of Aβ plaques using a specific polyclonal antibody against Aβ1-42 (Abcam) and the Rabbit ImmunoCruz Staining System (Santa Cruz Biotechnology, Santa Cruz, Calif.) according to the manufacturer's protocol. […]

For another data set, the system named is IMR-32 cells. Kind of data set: Cell viability assay (CellTiter96 AQueous One, OD490). Type of data set: cell-based, human. The following applies: 150 ppb, 72 hours. The procedure: Cell viability in cultured IMR-32 cells was determined using Promega's CellTiter96® AQueous One Solution Cell Proliferation Assay kits, according to the manufacturer's protocol and instructions. In brief, IMR-32 cells were seeded on 96-well clear plates (VWR) at a density of 2×10^4 cells/well, and treated with control or compounds of the present invention for 24 hours, 28 hours, and/or 72 hours.
The cultured cells were then incubated with AQueous One solution (100 ul/per well) at 37° C. for 1 hour. The absorbance at OD490 nm in each sample was determined by a Bio-Tek microplate reader. Cell viability in cultured cells were determined by the subtraction of OD490 nm in cultured cells with the OD490 nm in plain culture media without seeding of cells (control). Eight samples per each treatment were examined for the above analysis.
Cell viability assays were performed on cells after treatment with various compounds (150 ppb selenium compounds and equal dilution of their sulfur analog) for 24 hours, and 72 hours.

[2] abbreviates: FOXO4KD cells, 75 ppb and 150 ppb.

With `C[Se]C[C@H]1O[C@@H](n2cnc3c(N)ncnc32)C(O)C1O` (stereo in doubt) [Compound C, 5′-deoxy-5′-methylselenoadenosine], in the data set on RCAN1 (setting [2]), the “RCAN1.1 mRNA expression” value is reported as “not significantly affected” and the “total RCAN1 mRNA levels” value was “not significantly altered”. Further, in the data set on RCAN1 (control cells (control siRNA lentiviruses), 75 ppb and 150 ppb), the “total RCAN1 mRNA levels” value is “dose-dependent decrease; also recorded: significantly attenuated”. The “RCAN1.1 mRNA expression” value in the data set on RCAN1 (control cells, 150 ppb) was “inhibited”. Further, the “Iba-1 protein levels in the brains” value in the data set on Iba-1 is “reduced; also recorded: decreased”. For the same compound, in data set [1], the “Aβ plaque deposits in the brain cortex (IHC, Aβ1-42 staining)” value was “much fewer and/or weaker-staining” and the “Aβ plaque deposits in the brain hippocampus (IHC, Aβ1-42 staining)” value is on record as “much fewer and/or weaker-staining”. Besides, in the data set on IMR-32 cells, the “cell viability (OD490)” value was “small, but significant increase”.
